EC50 data for 31 compounds are collected here from patent US9790215B2 (FLATLEY DISCOVERY LAB, LLC, priority 2013, dated 2017).

The experiment has as its target T1, human ΔF508-CFTR (Homo sapiens, UniProt P13569, DEL508-508).
T1 construct: expressed in transfected cells
The experiment is described as follows: CFTR-YFP High Throughput Assay (YFP halide flux in FRT cells). The experiment is classed as cell-based. Particulars: FRT cells expressing human ΔF508-CFTR and YFP; forskolin stimulated. A digest of the protocol: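 FRT cells stably co-expressing human ΔF508-CFTR and halide-sensitive YFP-H148Q/I152L were treated with compound […] for 24–26 h at 37 °C (corrector mode), washed, then stimulated with 20 μM forskolin plus 30 μM potentiator P3 for 60–120 min at room temperature. Iodide-induced YFP quench (ex 500/em 540 nm) rates came from least-squares fitting.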

The term EC50 denotes the concentration at which the effect is half-maximal.

T1 sequence (P13569 with tags, fused parts or gaps DEL508-508): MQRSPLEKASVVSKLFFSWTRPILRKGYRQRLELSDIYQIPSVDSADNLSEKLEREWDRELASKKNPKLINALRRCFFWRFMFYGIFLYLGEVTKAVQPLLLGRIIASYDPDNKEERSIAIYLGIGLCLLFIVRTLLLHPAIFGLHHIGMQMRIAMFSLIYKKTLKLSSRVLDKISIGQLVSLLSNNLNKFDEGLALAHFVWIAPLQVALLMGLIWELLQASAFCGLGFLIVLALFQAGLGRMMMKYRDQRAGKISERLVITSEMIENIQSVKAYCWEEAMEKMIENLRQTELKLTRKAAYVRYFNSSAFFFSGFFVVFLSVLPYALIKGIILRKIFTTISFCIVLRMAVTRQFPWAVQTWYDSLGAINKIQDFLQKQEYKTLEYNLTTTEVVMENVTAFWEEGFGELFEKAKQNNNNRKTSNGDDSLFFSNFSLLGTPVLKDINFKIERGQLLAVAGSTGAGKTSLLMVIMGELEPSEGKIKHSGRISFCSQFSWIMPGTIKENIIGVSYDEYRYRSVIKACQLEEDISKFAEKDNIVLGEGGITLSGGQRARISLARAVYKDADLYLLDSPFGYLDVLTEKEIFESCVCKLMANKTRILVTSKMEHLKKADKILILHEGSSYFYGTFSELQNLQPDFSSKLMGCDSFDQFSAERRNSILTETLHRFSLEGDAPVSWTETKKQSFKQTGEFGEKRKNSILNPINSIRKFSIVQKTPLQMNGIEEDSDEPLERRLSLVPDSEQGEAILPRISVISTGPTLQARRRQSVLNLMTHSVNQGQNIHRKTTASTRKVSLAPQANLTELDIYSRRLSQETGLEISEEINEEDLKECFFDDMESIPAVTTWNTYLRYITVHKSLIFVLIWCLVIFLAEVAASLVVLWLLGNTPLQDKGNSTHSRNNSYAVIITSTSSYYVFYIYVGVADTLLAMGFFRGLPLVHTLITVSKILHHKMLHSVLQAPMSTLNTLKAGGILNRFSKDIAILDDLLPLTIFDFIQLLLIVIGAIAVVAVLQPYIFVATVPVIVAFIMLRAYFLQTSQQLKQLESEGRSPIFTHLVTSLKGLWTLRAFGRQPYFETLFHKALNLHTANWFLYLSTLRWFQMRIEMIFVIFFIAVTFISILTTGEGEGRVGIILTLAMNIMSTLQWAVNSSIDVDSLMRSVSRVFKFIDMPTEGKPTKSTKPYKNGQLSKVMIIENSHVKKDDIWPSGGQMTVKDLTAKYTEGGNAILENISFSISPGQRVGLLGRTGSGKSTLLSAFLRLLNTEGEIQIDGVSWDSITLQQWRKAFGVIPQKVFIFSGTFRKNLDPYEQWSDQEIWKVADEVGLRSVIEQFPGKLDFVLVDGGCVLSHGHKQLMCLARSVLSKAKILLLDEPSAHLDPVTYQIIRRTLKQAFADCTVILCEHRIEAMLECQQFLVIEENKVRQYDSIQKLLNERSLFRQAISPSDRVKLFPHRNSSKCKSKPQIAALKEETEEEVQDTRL

On to `CCN(C(=O)Cn1nc(C(=O)N(CC)c2ccccc2C#N)c2ccccc2c1=O)c1ccc2c(c1)OC(F)(F)O2` [Example 83, N-(2-cyanophenyl)-3-(2-((2,2-difluoro-benzo[d][1,3]dioxol-5-yl)(ethyl)amino)-2-oxoethyl)-N-ethyl-4-oxo-3,4-dihydro-phthalazine-1-carboxamide], for which the EC50 was less than 10 µM. Next, `CCc1ccc(N(CC)C(=O)Cn2nc(C(=O)Nc3cc(Cl)ccc3C(=O)OC)c3ccccc3c2=O)cc1` [Example 84, methyl 4-chloro-2-(3-(2-(ethyl(4-ethylphenyl)amino)-2-oxoethyl)-4-oxo-3,4-dihydrophthalazine-1-carboxamido)benzoate]: less than 10 µM. On to `CCN(C(=O)Cn1ncc2c(c1=O)c1ccccc1n2Cc1ccccn1)c1ccc2c(c1)OC(F)(F)O2` [Example 85, N-(2,2-difluorobenzo[d][1,3]dioxol-5-yl)-N-ethyl-2-(1-oxo-5-(pyridin-2-ylmethyl)-1H-pyridazino[4,5-b]indol-2(5H)-yl)acetamide], for which the EC50 fell in the range of 10 to 20 µM. Take `CCN(C(=O)Cn1ncc2c(c1=O)c1ccccc1n2CCOC)c1ccc2c(c1)OC(F)(F)O2` [Example 86, N-(2,2-difluorobenzo[d] [1,3]dioxol-5-yl)-N-ethyl-2-(5-(2-methoxyethyl)-1-oxo-1H-pyridazino[4,5-b]indol-2(5H)-yl)acetamide]: the EC50 was less than 10 µM. The figure for `CCN(C(=O)Cn1ncc2c(c1=O)c1ccccc1n2Cc1ccccc1)c1ccc2c(c1)OC(F)(F)O2` [Example 87, 2-(5-benzyl-1-oxo-1H-pyridazino[4,5-b]indol-2(5H)-yl)-N-(2,2-difluorobenzo[d][1,3]dioxol-5-yl)-N-ethylacetamide] is less than 10 µM; for `CCN(C(=O)Cn1ncc2c(c1=O)c1ccccc1n2CCC(=O)OC)c1ccc2c(c1)OC(F)(F)O2` [Example 88, methyl 3-(2-(2-((2,2-difluorobenzo[d][1,3]dioxol-5-yl)(ethyl)amino)-2-oxoethyl)-1-oxo-1H-pyridazino[4,5-b]indol-5(2H)-yl)propanoate] it is less than 10 µM; for `CCN(C(=O)Cn1ncc2c(c1=O)c1ccccc1n2Cc1cccc(OC)c1)c1ccc2c(c1)OC(F)(F)O2` [Example 89, N-(2,2-difluorobenzo[d] [1,3]dioxol-5-yl)-N-ethyl-2-(5-(3-methoxybenzyl)-1-oxo-1H-pyridazino[4,5-b]indol-2(5H)-yl)acetamide] it is 10 to 20 µM. As for `CCN(C(=O)Cn1ncc2c(c1=O)c1ccccc1n2Cc1ccc(OC)cc1)c1ccc2c(c1)OC(F)(F)O2` [Example 90, N-(2,2-difluorobenzo[d][1,3]dioxol-5-yl)-N-ethyl-2-(5-(4-methoxy-benzyl)-1-oxo-1H-pyridazino[4,5-b]indol-2(5H)-yl)acetamide], the EC50 was in the range of 10 to 20 µM. The figure for `CCN(C(=O)Cn1ncc2c(c1=O)c1ccccc1n2CCCOC)c1ccc2c(c1)OC(F)(F)O2` [Example 91, N-(2,2-difluorobenzo[d] [1,3]dioxol-5-yl)-N-ethyl-2-(5-(3-methoxypropyl)-1-oxo-1H-pyridazino[4,5-b]indol-2(5H)-yl)acetamide] is less than 10 µM; for `CCN(C(=O)Cn1ncc2c(c1=O)c1ccccc1n2CCC#N)c1ccc2c(c1)OC(F)(F)O2` [Example 92, 2-(5-(2-cyanoethyl)-1-oxo-1H-pyridazino[4,5-b]indol-2(5H)-yl)-N-(2,2-difluorobenzo[d][1,3]dioxol-5-yl)-N-ethylacetamide] it is less than 10 µM. Next, `CCN(C(=O)Cn1ncc2c(c1=O)c1ccccc1n2CC#N)c1ccc2c(c1)OC(F)(F)O2` [Example 93, 2-(5-(cyanomethyl)-1-oxo-1H-pyridazino[4,5-b]indol-2(5H)-yl)-N-(2,2-difluorobenzo[d][1,3]dioxol-5-yl)-N-ethylacetamide]: less than 10 µM; `CCN(C(=O)Cn1ncc2c(c1=O)c1ccccc1n2Cc1cccnc1)c1ccc2c(c1)OC(F)(F)O2` [Example 94, N-(2,2-difluorobenzo[d][1,3]dioxol-5-yl)-N-ethyl-2-(1-oxo-5-(pyridin-3-ylmethyl)-1H-pyridazino[4,5-b]indol-2(5H)-yl)acetamide]: less than 10 µM. The figure for `CCN(C(=O)Cn1ncc2c(c1=O)c1ccccc1n2Cc1ccccc1C#N)c1ccc2c(c1)OC(F)(F)O2` [Example 95, 2-(5-(2-cyanobenzyl)-1-oxo-1H-pyridazino[4,5-b]indol-2(5H)-yl)-N-(2,2-difluorobenzo[d][1,3]dioxol-5-yl)-N-ethylacetamide] is less than 10 µM; for `CCN(C(=O)Cn1ncc2c(c1=O)c1ccccc1n2Cc1cccc(C#N)c1)c1ccc2c(c1)OC(F)(F)O2` [Example 96, 2-(5-(3-cyanobenzyl)-1-oxo-1H-pyridazino[4,5-b]indol-2(5H)-yl)-N-(2,2-difluorobenzo[d][1,3]dioxol-5-yl)-N-ethylacetamide] it is less than 10 µM. Take `CCN(C(=O)Cn1ncc2c(c1=O)c1ccccc1n2Cc1ccncc1)c1ccc2c(c1)OC(F)(F)O2` [Example 97, N-(2,2-difluorobenzo[d] [1,3]dioxol-5-yl)-N-ethyl-2-(1-oxo-5-(pyridin-4-ylmethyl)-1H-pyridazino[4,5-b]indol-2(5H)-yl)acetamide]: the EC50 was less than 10 µM. Next, `Cc1ccc(-n2nc(C(=O)N3CCCCC3)c3c4ccccc4n(C)c3c2=O)cc1` [Example 101, 5-methyl-1-(piperidine-1-carbonyl)-3-p-tolyl-3H-pyridazino[4,5-b]indol-4(5H)-one]: less than 10 µM. `CCN(C(=O)c1nn(-c2ccccc2)c(=O)c2c1c1ccccc1n2C)c1ccncn1` [Example 102, N-ethyl-5-methyl-4-oxo-3-phenyl-N-(pyrimidin-4-yl)-4,5-dihydro-3H-pyridazino[4,5-b]indole-1-carboxamide]: the EC50 is less than 10 µM. In the case of `Cc1ccc(-n2nc(C(=O)N(c3ccccc3)C(C)C)c3c4ccccc4n(C)c3c2=O)cc1` [Example 103, N-isopropyl-5-methyl-4-oxo-N-phenyl-3-(p-tolyl)-4,5-dihydro-3H-pyridazino[4,5-b]indole-1-carboxamide], the EC50 was less than 10 µM. Consider `Cc1ccc(-n2nc(C(=O)N(c3ccccc3)C3CC3)c3c4ccccc4n(C)c3c2=O)cc1` [Example 104, N-cyclopropyl-5-methyl-4-oxo-N-phenyl-3-(p-tolyl)-4,5-dihydro-3H-pyridazino[4,5-b]indole-1-carboxamide], for which the EC50 is less than 10 µM. Regarding `Cc1ccc(-n2nc(C(=O)N(CC#N)c3ccccc3)c3c4ccccc4n(C)c3c2=O)cc1` [Example 105, N-(cyanomethyl)-5-methyl-4-oxo-N-phenyl-3-(p-tolyl)-4,5-dihydro-3H-pyridazino[4,5-b]indole-1-carboxamide], the 50% effective concentration (EC50) is less than 10 µM. Next, `CCN(CC)C(=O)c1nn(-c2ccc(C)cc2)c(=O)c2c1c1ccccc1n2C` [Example 106, N,N-diethyl-5-methyl-4-oxo-3-(p-tolyl)-4,5-dihydro-3H-pyridazino[4,5-b]indole-1-carboxamide]: less than 10 µM. Turning to `CCN(C(=O)c1nn(-c2ccc(C)cc2)c(=O)c2c1c1ccccc1n2C)c1ccccn1` [Example 107, N-ethyl-5-methyl-4-oxo-N-(pyridin-2-yl)-3-(p-tolyl)-4,5-dihydro-3H-pyridazino[4,5-b]indole-1-carboxamide], the EC50 is less than 10 µM. Next, `CCN(C(=O)c1nn(-c2ccc(C)cc2)c(=O)c2c1c1ccccc1n2C)c1cccnc1` [Example 108, N-ethyl-5-methyl-4-oxo-N-(pyridin-3-yl)-3-(p-tolyl)-4,5-dehydro-3H-pyridazino[4,5-b]indole-1-carboxamide]: less than 10 µM; `CCN(C(=O)c1nn(-c2ccccc2)c(=O)c2c1c1ccccc1n2C)c1ccncc1` [Example 109, N-ethyl-5-methyl-4-oxo-3-phenyl-N-(pyridin-4-yl)-4,5-dihydro-3H-pyridazino[4,5-b]indole-1-carboxamide]: less than 10 µM; `Cc1ccc(-n2nc(C(=O)N3CCCc4ccccc43)c3c4ccccc4n(C)c3c2=O)cc1` [Example 110, 5-methyl-1-(1,2,3,4-tetrahydroquinoline-1-carbonyl)-3-(p-tolyl)-3H-pyridazino[4,5-b]indol-4(5H)-one]: less than 10 µM. Next, `CCN(C(=O)c1nn(-c2ccc(C)cc2)c(=O)c2c1c1ccccc1n2C)C1CC1` [Example 111, N-cyclopropyl-N-ethyl-5-methyl-4-oxo-3-(p-tolyl)-4,5-dihydro-3H-pyridazino[4,5-b]indole-1-carboxamide]: less than 10 µM; `Cc1ccc(-n2nc(C(=O)N3CCN(Cc4ccccc4)CC3)c3c4ccccc4n(C)c3c2=O)cc1` [Example 112, 1-(4-benzylpiperazine-1-carbonyl)-5-methyl-3-(p-tolyl)-3H-pyridazino[4,5-b]indol-4(5H)-one]: less than 10 µM; `CCN(C(=O)c1nn(-c2ccccc2)c(=O)c2c1c1ccccc1n2C)c1ncccn1` [Example 113, N-ethyl-5-methyl-4-oxo-3-phenyl-N-(pyrimidin-2-yl)-4,5-dihydro-3H-pyridazino[4,5-b]indole-1-carboxamide]: more than 20 µM.

As to `Cc1ccc(-n2nc(C(=O)N(CC(=O)O)c3ccccc3)c3c4ccccc4n(C)c3c2=O)cc1` [Example 114, 2-(5-methyl-4-oxo-N-phenyl-3-(p-tolyl)-4,5-dihydro-3H-pyridazino[4,5-b]indole-1-carboxamido) acetic acid], the EC50 is more than 20 µM.

On to `CCN(C(=O)c1nn(-c2ccccc2)c(=O)c2c1c1ccccc1n2C)c1ncnc2c1cnn2C` [Example 115, N-ethyl-5-methyl-N-(1-methyl-1H-pyrazolo[3,4-d]pyrimidin-4-yl)-4-oxo-3-phenyl-4,5-dihydro-3H-pyridazino[4,5-b]indole-1-carboxamide], for which the EC50 was 10 to 20 µM. With `CCN(C(=O)c1nn(-c2ccccn2)c(=O)c2c1c1ccccc1n2C)c1ccccc1` [Example 118, N-ethyl-5-methyl-4-oxo-N-phenyl-3-(pyridin-2-yl)-4,5-dihydro-3H-pyridazino[4,5-b]indole-1-carboxamide], the EC50 was less than 10 µM.
